# Values of other authors as cited in US8709720B2, “Methods and kits for predicting the responsiveness of hepatocellular carcinoma patients to 5-fluorouracil-based combination chemotherapy” (priority 2012, dated 2014).
# Tested on: advanced HCC
# Settings: advanced HCC patients, prior research / clinical trials
smiles,measurement,value
COc1cccc2c1C(=O)c1c(O)c3c(c(O)c1C2=O)C[C@@](O)(C(=O)CO)C[C@@H]3O[C@H]1C[C@H](N)[C@H](O)[C@H](C)O1 [doxorubicin],response rate,32%
